Common to all, as to assay type: in vivo
For experiment [1], the system named is Zea mays L. var. saccharata Sturt. As to the kind of experiment: Cultivation of Zea mays L. var. saccharata Sturt with GSSG, sensory test (Example 3). The note with it: 50 mL of 0.2 mM, 4 times at root and 4 times sprayed to leaves. From the text: In the present example, Zea mays L. var. saccharata Sturt was cultivated. First, a Zea mays L. var. saccharata Sturt seed (TAKII & CO. Ltd., product number: Canberra 90) was sown in vermiculite (ASAHI INDUSTRIES Co., LTD.). Two weeks after sowing, a Zea mays L. var. saccharata Sturt plant was transplanted to a hydroponic culture pot described in Example 1. To the plant, 3 g of Kumiai phosphorate ammonium nitrate potassium S-604 (Chisso Asahi Fertilizer Co., Ltd.) was applied as an additional fertilizer 4 weeks and 6 weeks after the sowing.
Within 2 weeks from the 5th week after the sowing, 50 mL of 0.2 mM GSSG was applied 4 times at a root of the plant. Within 2 weeks from the 7th week after the sowing, 50 mL of 0.2 mM GSSG was sprayed 4 times to leaves of the plant. For comparison, a Zea mays L. var. saccharata Sturt plant was cultivated by the same method as in the present example, except that GSSG was not applied, and fruit thereof was harvested.
Fruit was harvested 90 days after the sowing and subjected to a sensory test of sugar content. As a result, it was determined that fruit of the plant applied with GSSG increased in sugar content compared to that of the plant applied with no GSSG. Further, it was determined that the plant applied with GSSG increased in size and number of fruit.

A further experiment deals with Lycopersicum esculentum. As to the kind of experiment: Change of sugar content over time after one application of GSH or GSSG (Example 6). The settings on record: 50 mL of 0.5 mM once at root 90 days after sowing; fruit harvested day 0 to day 4.
The subject of experiment [2] is Vitis labrusca (Delaware). The experiment is described as follows: Cultivation of Vitis labrusca with GSSG or GSH, sensory test (Example 5). How it is done: In the present invention, Vitis labrusca was cultivated. Specifically, immediately after flowering of a Vitis labrusca (Delaware) plant, a mixed solution of 1 mM gibberellin (GA3) and 1 mM of an agent was applied to anthotaxy of the plant. The agent was GSSG or GSH. Then, the plant was coated with the agent and thereafter produced fruit was harvested. For comparison, a Vitis labrusca plant was cultivated in the same way, except that GA3, but not GSSG or GSH, was applied, and fruit thereof was harvested and subjected to a sensory test described below.
The fruit harvested was subjected to a sensory test of sugar content. As a result, it was determined that fruit of the plant applied with GA3 and GSSG or GSH increased in sugar content compared to that of the plant applied with only GA3. Further, it was determined that the plant applied with GSSG and GA3 increased in size of fruit.

Description for Lycopersicum esculentum: In the present example, a sugar content of a plant was determined after a substance for regulating an oxidation-reduction state of a cell was applied to the plant. The substance for regulating an oxidation-reduction state of a cell was GSH or GSSG. As in the case of Example 1, Lycopersicum esculentum was used as the plant. Specifically, the following operations were carried out.
Ninety days after sowing of Lycopersicum esculentum seeds, Lycopersicum esculentum plants were subjected to a GSH or GSSG treatment. The Lycopersicum esculentum plants were cultivated by the same method as in Example 1 except for the GSH or GSSG treatment. The GSH or GSSG treatment was such that 50 mL of 0.5 mM GSSH or 0.5 mM GSH (adjusted with 0.1N NaOH to be at pH 7) was applied once at a root per plant. Then, fruit of the plants was harvested every day from the 0th day until the 4th day after application of GSH or GSSG, and subjected to sugar content determination. […] FIG. 3 is a graph showing a determination result of relation between sugar content and the number of days from an application day of GSH or GSSG. In FIG. 3, the vertical scale indicates sugar content (Brix, unit: %) and the horizontal scale indicates days from the application day. In FIG. 3, lines labeled with circles, triangles, and squares show results of the plants applied with GSH, GSSG, and no GSH and no GSSG, respectively. […]

Regarding oxidized glutathione [GSSG], the number of fruit result in experiment [1] is listed as “increased”. Besides, the size of fruit result is “increased” in experiment [1] and “increased” in experiment [2] (1 mM agent mixed with 1 mM GA3, applied to anthotaxy). Further, the “sugar content of fruit (sensory test)” value in experiment [1] (harvest 90 days after sowing, vs no GSSG) is given as “increased”; in experiment [2] (1 mM agent mixed with 1 mM gibberellin (GA3), applied to anthotaxy, compared to plant applied with only GA3) it was “increased”. Moreover, the “sugar content of fruit (Brix) after application” value in the experiment on Lycopersicum esculentum is “rapidly improve”. For the same substance, in experiment [2] (applied without GA3), the sugar content result is reported as “increased”.
